Active and inactive are the calls of the source. The rule behind the calls is not given here.

The subject of experiment [1] is Mus musculus. The experiment can be described thus: Analgesic activity in po dosed mouse assessed as licking latency at 77 uM measured after 45 mins by hot plate test (reference value: 14.5 to 15.7 sec). It counts as functional. The conditions noted are these: 0.75 h. Background: Hot-plate and tail-flick tests time the reaction to a heat stimulus.
Experiment [2] concerns Mus musculus. The experiment can be described thus: Analgesic activity in po dosed mouse assessed as alteration in spontaneous motility at high dose by hot plate test. It counts as functional, organism-based.
Experiment [3] deals with T1, Sodium channel protein type 4 subunit alpha (Homo sapiens, UniProt P35499). The experiment can be described thus: Inhibition of human Nav 1.4 expressed in HEK293T cells assessed as phasic block at 10 Hz by whole cell patch clamp assay. It counts as cell-based. For orientation: Patch clamp records ionic current or voltage across a cell membrane.
T1 sequence (P35499 whole entry): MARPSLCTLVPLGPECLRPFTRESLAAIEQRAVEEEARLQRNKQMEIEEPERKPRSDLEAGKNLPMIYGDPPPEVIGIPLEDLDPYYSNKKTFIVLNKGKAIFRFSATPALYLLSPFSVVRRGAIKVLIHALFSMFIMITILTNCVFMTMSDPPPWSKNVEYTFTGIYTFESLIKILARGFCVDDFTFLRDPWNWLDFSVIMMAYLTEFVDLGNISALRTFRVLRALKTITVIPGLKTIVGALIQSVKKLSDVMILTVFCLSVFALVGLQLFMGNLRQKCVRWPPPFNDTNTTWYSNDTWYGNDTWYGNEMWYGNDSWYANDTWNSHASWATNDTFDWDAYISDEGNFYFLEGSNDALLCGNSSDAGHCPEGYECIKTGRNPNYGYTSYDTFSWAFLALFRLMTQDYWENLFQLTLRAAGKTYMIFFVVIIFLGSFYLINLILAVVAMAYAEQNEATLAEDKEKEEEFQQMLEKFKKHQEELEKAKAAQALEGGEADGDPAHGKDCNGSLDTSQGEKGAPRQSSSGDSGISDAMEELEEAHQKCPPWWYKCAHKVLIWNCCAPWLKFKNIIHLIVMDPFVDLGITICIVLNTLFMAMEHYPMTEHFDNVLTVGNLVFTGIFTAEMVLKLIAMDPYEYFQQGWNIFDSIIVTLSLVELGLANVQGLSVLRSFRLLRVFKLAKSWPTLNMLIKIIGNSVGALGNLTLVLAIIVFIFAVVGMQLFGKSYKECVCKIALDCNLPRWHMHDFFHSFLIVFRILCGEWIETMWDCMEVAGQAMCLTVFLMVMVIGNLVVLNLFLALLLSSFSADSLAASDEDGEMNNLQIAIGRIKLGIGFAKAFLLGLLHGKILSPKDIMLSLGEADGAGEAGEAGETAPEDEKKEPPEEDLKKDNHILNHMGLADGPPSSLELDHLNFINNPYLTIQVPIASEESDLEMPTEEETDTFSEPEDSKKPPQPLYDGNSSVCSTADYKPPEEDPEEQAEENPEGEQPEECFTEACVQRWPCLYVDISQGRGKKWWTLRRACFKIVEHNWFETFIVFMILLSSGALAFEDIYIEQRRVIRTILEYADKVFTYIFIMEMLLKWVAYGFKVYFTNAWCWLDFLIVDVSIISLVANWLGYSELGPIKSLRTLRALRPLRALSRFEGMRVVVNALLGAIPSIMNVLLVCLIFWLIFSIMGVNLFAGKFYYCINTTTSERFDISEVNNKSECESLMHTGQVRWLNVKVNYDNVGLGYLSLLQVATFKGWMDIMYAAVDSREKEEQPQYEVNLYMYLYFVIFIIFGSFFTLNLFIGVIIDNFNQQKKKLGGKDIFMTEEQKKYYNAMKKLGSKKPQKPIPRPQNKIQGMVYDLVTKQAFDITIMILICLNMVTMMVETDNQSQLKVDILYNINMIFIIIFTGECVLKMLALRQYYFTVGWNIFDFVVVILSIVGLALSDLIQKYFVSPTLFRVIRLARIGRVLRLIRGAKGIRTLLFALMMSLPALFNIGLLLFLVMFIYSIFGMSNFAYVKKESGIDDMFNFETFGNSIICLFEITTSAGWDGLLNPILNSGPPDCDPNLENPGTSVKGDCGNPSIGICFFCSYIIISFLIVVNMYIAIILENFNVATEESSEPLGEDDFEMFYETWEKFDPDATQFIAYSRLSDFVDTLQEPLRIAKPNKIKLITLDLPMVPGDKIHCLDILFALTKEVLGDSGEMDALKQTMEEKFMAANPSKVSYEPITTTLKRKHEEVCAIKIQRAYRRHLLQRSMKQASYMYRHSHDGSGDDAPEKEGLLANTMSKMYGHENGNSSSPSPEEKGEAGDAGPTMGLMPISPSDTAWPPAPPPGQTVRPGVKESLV
Experiment [4] has as its system Mus musculus. The experiment can be described thus: Analgesic activity in po dosed mouse assessed as licking latency at 77 uM measured after 60 mins by hot plate test (reference value: 14.5 to 15.7 sec). Format: functional. The conditions noted are these: 1 h.
In experiment [5] the test system is Mus musculus. The experiment can be described thus: Analgesic activity in po dosed mouse assessed as licking latency at 77 uM measured after 15 mins by hot plate test (reference value: 14.5 to 15.7 sec). Format: functional. The conditions noted are these: 0.25 h.
Experiment [6] addresses T1, Sodium channel protein type 4 subunit alpha. The experiment can be described thus: Inhibition of human Nav 1.4 expressed in HEK293T cells assessed as tonic block at 0.1 Hz by whole cell patch clamp assay. Format: cell-based.
Experiment [7] relates to Mus musculus. The experiment can be described thus: Analgesic activity in po dosed mouse assessed as licking latency at 77 uM measured after 30 mins by hot plate test (reference value: 14.5 to 15.7 sec). Format: functional. The conditions noted are these: 0.5 h.
The species entered for experiment [8] is Rattus norvegicus. The experiment can be described thus: Reduction in 9-anthracene carboxylic acid induced myotonic-like condition in Wistar rat skeletal muscle fiber by measuring electable action potential at 0.3 to 10 uM by two intracellular microelectrode current-clamp method. It counts as functional, tissue-based. The conditions noted are these: Skeletal muscle tissue, dose 0.3-10 µM.

The subject of experiment [9] is Mus musculus. The experiment can be described thus: Analgesic activity in po dosed mouse assessed as alterations in motor coordination at high dose by hot plate test. It counts as functional, organism-based.
The species named for experiment [10] is Rattus norvegicus. The experiment can be described thus: Reduction in 9-anthracene carboxylic acid induced myotonic-like condition in Wistar rat skeletal muscle fiber by measuring electable action potential at upto 10 uM by two intracellular microelectrode current-clamp method. Format: functional, tissue-based. As to conditions: Skeletal muscle tissue.
In experiment [11] the target is T2, Sodium channel protein type 9 subunit alpha (Homo sapiens, UniProt Q15858). The experiment can be described thus: Inhibition of human Nav 1.7 expressed in HEK293T cells assessed as tonic block at 0.1 Hz by whole cell patch clamp assay. It counts as cell-based.
T2 sequence (Q15858 whole entry): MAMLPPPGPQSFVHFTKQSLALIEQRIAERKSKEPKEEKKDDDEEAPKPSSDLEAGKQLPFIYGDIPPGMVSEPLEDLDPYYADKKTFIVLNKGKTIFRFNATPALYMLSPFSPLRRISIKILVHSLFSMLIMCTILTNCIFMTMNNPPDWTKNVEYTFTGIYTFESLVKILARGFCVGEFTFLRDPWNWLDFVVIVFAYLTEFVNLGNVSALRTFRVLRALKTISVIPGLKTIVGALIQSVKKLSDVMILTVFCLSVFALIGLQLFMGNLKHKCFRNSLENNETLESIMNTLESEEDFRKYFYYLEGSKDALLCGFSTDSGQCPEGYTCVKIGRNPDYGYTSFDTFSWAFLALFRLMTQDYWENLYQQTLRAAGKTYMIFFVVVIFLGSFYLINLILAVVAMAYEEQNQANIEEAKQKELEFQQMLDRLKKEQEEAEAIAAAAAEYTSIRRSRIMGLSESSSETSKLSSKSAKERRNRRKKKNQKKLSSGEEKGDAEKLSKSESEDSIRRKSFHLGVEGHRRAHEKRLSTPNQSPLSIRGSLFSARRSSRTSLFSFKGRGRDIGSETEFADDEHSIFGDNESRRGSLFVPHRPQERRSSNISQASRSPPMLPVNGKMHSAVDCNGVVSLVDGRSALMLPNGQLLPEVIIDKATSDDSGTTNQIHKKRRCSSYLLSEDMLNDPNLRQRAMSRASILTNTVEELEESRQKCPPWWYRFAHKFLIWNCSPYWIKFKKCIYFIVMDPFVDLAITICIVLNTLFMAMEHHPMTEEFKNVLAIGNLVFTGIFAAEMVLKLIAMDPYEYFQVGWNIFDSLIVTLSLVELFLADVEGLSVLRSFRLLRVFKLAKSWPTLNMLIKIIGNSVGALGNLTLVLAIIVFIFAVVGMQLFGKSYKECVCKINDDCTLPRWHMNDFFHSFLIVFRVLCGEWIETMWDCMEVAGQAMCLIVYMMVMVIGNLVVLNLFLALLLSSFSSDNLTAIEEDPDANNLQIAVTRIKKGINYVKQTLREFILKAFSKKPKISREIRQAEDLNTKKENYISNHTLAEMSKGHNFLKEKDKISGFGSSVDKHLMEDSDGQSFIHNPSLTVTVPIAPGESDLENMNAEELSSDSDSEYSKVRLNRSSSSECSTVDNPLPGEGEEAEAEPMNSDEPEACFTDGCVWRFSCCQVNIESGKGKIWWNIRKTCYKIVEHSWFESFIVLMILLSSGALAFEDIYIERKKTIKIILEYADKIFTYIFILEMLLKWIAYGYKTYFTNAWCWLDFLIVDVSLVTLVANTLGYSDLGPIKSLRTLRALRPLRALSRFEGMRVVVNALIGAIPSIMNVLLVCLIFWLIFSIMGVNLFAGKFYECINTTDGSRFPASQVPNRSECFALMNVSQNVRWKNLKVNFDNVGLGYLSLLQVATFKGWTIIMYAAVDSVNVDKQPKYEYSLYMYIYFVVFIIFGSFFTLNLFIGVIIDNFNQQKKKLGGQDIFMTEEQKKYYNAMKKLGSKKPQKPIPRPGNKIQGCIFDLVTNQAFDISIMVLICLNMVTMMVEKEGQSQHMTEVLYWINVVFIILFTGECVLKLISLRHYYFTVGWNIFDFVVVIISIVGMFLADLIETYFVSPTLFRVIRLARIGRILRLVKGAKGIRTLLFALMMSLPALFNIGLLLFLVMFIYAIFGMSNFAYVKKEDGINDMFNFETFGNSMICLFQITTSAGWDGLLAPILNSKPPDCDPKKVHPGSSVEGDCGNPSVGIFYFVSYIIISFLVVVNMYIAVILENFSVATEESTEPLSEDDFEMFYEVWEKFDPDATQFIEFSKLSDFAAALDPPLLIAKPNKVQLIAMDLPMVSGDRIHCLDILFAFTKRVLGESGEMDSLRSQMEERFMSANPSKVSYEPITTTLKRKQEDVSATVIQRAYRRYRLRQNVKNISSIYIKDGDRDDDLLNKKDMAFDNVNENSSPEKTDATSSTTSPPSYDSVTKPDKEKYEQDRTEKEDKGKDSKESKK
The target in experiment [12] is T2, Sodium channel protein type 9 subunit alpha. The experiment can be described thus: Inhibition of human Nav 1.7 expressed in HEK293T cells assessed as phasic block at 10 Hz by whole cell patch clamp assay. It counts as cell-based.
The species entered for experiment [13] is Homo sapiens. The experiment can be described thus: Selectivity ratio of IC50 for human Nav 1.4 expressed in HEK293T cells assessed as tonic block at 0.1 Hz to IC50 for human Nav 1.4 expressed in HEK293T cells assessed as phasic block at 10 Hz. Format: cell-based.
Experiment [14] is filed under the species Homo sapiens. The experiment can be described thus: Selectivity ratio of IC50 for human Nav 1.7 expressed in HEK293T cells assessed as tonic block at 0.1 Hz to IC50 for human Nav 1.7 expressed in HEK293T cells assessed as phasic block at 10 Hz. It counts as cell-based.

Consider `Nc1nc2ccc(OC(F)(F)F)cc2s1` [RILUZOLE], for which the Activity in [1] stood at 24.3 s; in [4], 18.3 s; in experiment [5], 20.5 s; in experiment [7] it was 25.6 s. In addition, the result in [2] and in [9] was inactive. Also, the IC50 worked out at 51 µM in experiment [3] and 63 µM in [6]. Also, the outcome in experiment [8] was Active.
Turning to `CNCCN(C)c1nc2ccc(OC(F)(F)F)cc2s1`, the Activity in experiment [1] was determined as 16.6 s; in [4] it was 16 s; in experiment [5], 17.8 s; in experiment [7] it was 18 s.
`c1ccc(Oc2ccc3nc(N4CCNCC4)sc3c2)cc1`: the Activity was determined as 23.1 s in [1], 19.9 s in experiment [4], 21.6 s in [5] and 26.2 s in experiment [7]. Further, the outcome in experiment [10], in [2] and in [9] was inactive. For the same compound, the IC50 in experiment [11] came out at 106 µM; in [12], 48 µM; in experiment [3] it was 63 µM; in experiment [6], 250 µM. Besides, the results for the Ratio IC50 in experiment [13] and in experiment [14] were 4 and 2.2, respectively.
Turning to `FC(F)(F)Oc1ccc2nc(N3CCNCC3)sc2c1`, the Activity in [1] is recorded as 17.3 s; in experiment [4], 15.5 s; in experiment [5], 16.8 s; in [7], 18.8 s. Also, the IC50 in experiment [11] turned out to be 52 µM; in [12], 24 µM; in experiment [3] it was 38 µM; in experiment [6] it was 95 µM. In addition, the Ratio IC50 amounted to 2.5 in experiment [13] and 2.2 in experiment [14].
As for `CC(C)c1ccc2nc(N)sc2c1`, the Ratio IC50 in experiment [13] came out at 1.3. For the same compound, the values for the IC50 in experiment [3] and in experiment [6] were 89 µM and 118 µM, respectively.
For `Nc1nc2ccc(C(F)(F)F)cc2s1`, the Ratio IC50 in [13] turned out to be 1.1. Further, the IC50 in [3] turned out to be 53 µM; in experiment [6], 58 µM.

The term IC50 denotes the concentration that inhibits the measured activity by half.

Source of the values: ChEMBL document CHEMBL5360608 (ACS Med Chem Lett, 2023).
